Here are results for 6 compounds from ChEMBL document CHEMBL5104233, “Advanced approaches of developing targeted covalent drugs” (RSC Med Chem, 2022).

Each structure is given as a SMILES string.

One test concerns the target CDK7/Cyclin H/MNAT1 (Homo sapiens, UniProt P50613). The experiment in a line: Inhibition of CDK7/Cyclin H/MAT1 (unknown origin) in leukemia cells. The format is cell-based, Leukemia cell.
The target in test [1] is Human immunodeficiency virus type 1 reverse transcriptase (Human immunodeficiency virus 1, UniProt Q72547, Y181C). The experiment in a line: Inhibition of HIV-1 reverse transcriptase Y181C mutant.
Another test has as its system CD4+ve Th. Nature of the test: Inhibition of Th1 cell differentiation in human peripheral blood CD4+ve Th cells assessed as decrease in IFNgamma production measured after 5 days. The format is functional, cell-based. Conditions: 120 h.
Test [2] deals with T1, Cyclin-dependent kinase 2 (Homo sapiens, UniProt P24941). The experiment in a line: Inhibition of CDK2 (unknown origin).
Test [3] concerns the target T1, Cyclin-dependent kinase 2. Nature of the test: Inhibition of pan-CDK2 (unknown origin) relative to control. To be noted: concentration not given here.
In another test the test system is Jurkat. The experiment in a line: Antiproliferative activity against human Jurkat cells assessed as inhibition of cell growth incubated for 72 hrs by Celltiter Glo assay. The format is functional, cell-based.

The term IC50 denotes the concentration at which inhibition is half-maximal. A word on the inhibition: it is the relative decrease from the control value, in per cent.

Chain of CDK7/Cyclin H/MNAT1 (P51946 whole entry): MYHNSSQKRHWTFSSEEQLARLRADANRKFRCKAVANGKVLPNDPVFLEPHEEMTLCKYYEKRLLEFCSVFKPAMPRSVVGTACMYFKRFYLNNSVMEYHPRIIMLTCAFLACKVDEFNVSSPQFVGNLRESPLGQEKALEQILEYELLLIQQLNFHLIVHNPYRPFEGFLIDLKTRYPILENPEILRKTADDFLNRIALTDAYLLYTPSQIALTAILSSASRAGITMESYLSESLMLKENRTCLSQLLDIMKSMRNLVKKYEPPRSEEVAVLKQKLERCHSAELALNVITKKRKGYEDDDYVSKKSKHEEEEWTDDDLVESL
Chain of CDK7/Cyclin H/MNAT1 (P50613 whole entry): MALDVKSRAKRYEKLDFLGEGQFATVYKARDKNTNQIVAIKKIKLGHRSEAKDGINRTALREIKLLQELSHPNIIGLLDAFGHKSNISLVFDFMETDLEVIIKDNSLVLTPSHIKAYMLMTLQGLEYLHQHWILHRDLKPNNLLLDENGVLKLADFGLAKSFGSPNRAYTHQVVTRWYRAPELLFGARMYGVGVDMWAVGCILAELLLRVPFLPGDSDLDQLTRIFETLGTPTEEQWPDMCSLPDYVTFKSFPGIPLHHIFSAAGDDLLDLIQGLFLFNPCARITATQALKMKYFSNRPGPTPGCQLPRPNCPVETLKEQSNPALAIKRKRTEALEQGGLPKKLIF
Chain of CDK7/Cyclin H/MNAT1 (P51948 whole entry, further chain): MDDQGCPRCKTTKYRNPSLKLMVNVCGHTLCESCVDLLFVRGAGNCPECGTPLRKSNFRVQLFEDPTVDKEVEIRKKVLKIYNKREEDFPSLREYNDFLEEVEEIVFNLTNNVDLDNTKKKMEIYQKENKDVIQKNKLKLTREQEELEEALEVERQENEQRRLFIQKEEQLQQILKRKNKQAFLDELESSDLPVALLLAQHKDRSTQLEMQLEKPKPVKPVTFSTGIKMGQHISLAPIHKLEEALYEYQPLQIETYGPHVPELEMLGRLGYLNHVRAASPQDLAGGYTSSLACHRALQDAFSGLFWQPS

Turning to `C=C(F)C(=O)N1CCN(c2nc(OC[C@@H]3CCCN3C)nc3c2CCN(c2cccc4cccc(Cl)c24)C3)C[C@@H]1CC#N` [ADAGRASIB], at CDK7/Cyclin H/MNAT1, the IC50 was 1.3 nM. In test [1], `Cc1c(Oc2ccccc2OCCn2ccc(=O)[nH]c2=O)cc(N(C)C(=O)CCl)c2ccc(C#N)cc12` had an IC50 of 480 nM. In the case of `C=CC(=O)N1C[C@H](Nc2ncnc3[nH]ccc23)CC[C@@H]1C` [RITLECITINIB], the IC50 in the test on CD4+ve Th stood at 48 nM. Consider `C=CC(=O)N(C)c1cc(Oc2ccccc2OCCn2ccc(=O)[nH]c2=O)c(C)c2cc(C#N)ccc12`, for which, in test [1], the IC50 is 400 nM. `C=CS(=O)(=O)c1ccc(Nc2nc(OCC3CCCCC3)c3nc[nH]c3n2)cc1`: in test [2], inhibition was half-maximal at 160 nM (IC50). The inhibition in test [3] is 50%.

On to `CN(C)C/C=C/C(=O)Nc1ccc(C(=O)N2CCC[C@H](Nc3ncc(Cl)c(-c4c[nH]c5ccccc45)n3)C2)cc1`, for which the IC50 in the test with Jurkat was 50 nM.
